How the values were obtained:
Type in all cases: in vivo
[1] = system: Lolium perenne (LOLPE); experiment: B1 pre-emergence herbicidal activity; conditions: Test 1b, rate 1000 g/ha, evaluated after 13 days, scale 5=total damage to plant, 0=no damage to plant
Experimental: (§1) Seeds of a variety of test species were sown in standard soil in pots: Triticum aestivium (TRZAW), Avena fatua (AVEFA), Alopecurus myosuroides (ALOMY), Echinochloa crus-galli (ECHCG), Lolium perenne (LOLPE), Zea Mays (ZEAMX), Abutilon theophrasti (ABUTH), Amaranthus retroflexus (AMARE) and Setaria faberi (SETFA). After cultivation for one day (pre-emergence) under controlled conditions in a glasshouse (at 24/16° C., day/night; 14 hours light; 65% humidity), the plants were sprayed with an aqueous spray solution derived from the formulation of the technical active ingredient in acetone/water (50:50) solution containing 0.5% Tween 20 (polyoxyethelyene sorbitan monolaurate, CAS RN 9005-64-5). The test plants were then grown in a glasshouse under controlled conditions (at 24/16° C., day/night; 14 hours light; 65% humidity) and watered twice daily. After 13 days, the test was evaluated (5=total damage to plant; 0=no damage to plant).

[2] = system: Echinochloa crus-galli (ECHCG); experiment: B1 pre-emergence herbicidal activity; conditions: Test 1b, rate 1000 g/ha, evaluated after 13 days, scale 5=total damage to plant, 0=no damage to plant
Experimental: as §1

[3] = system: Avena fatua (AVEFA); experiment: B1 pre-emergence herbicidal activity; conditions: Test 1b, rate 1000 g/ha, evaluated after 13 days, scale 5=total damage to plant, 0=no damage to plant
Experimental: as §1

[4] = system: Alopecurus myosuroides (ALOMY); experiment: B1 pre-emergence herbicidal activity; conditions: Test 1b, rate 1000 g/ha, evaluated after 13 days, scale 5=total damage to plant, 0=no damage to plant
Experimental: as §1

[5] = system: Setaria faberi (SETFA); experiment: B1 pre-emergence herbicidal activity; conditions: Test 1b, rate 1000 g/ha, evaluated after 13 days, scale 5=total damage to plant, 0=no damage to plant
Experimental: as §1

[6] = system: Triticum aestivium (TRZAW); experiment: B1 pre-emergence herbicidal activity; conditions: Test 1b, rate 1000 g/ha, evaluated after 13 days, scale 5=total damage to plant, 0=no damage to plant
Experimental: as §1

[7] = system: Lolium perenne (LOLPE); experiment: B2 post-emergence herbicidal activity; conditions: Test B2b; post-emergence (sprayed after 8 days cultivation); rate 1000 g/ha; evaluated after 13 days; scale 5=total damage to plant, 0=no damage to plant
Experimental: (§2) Seeds of a variety of test species were sown in standard soil in pots: Triticum aestivium (TRZAW), Avena fatua (AVEFA), Alopecurus myosuroides (ALOMY), Echinochloa crus-galli (ECHCG), Lolium perenne (LOLPE), Zea Mays (ZEAMX), Abutilon theophrasti (ABUTH), Amaranthus retroflexus (AMARE) and Setaria faberi (SETFA). After 8 days cultivation (post-emergence) under controlled conditions in a glasshouse (at 24/16° C., day/night; 14 hours light; 65% humidity), the plants were sprayed with an aqueous spray solution derived from the formulation of the technical active ingredient in acetone/water (50:50) solution containing 0.5% Tween 20 (polyoxyethelyene sorbitan monolaurate, CAS RN 9005-64-5). The test plants were then grown in a glasshouse under controlled conditions (at 24/16° C., day/night; 14 hours light; 65% humidity) and watered twice daily. After 13 days, the test was evaluated (5=total damage to plant; 0=no damage to plant).

[8] = system: Echinochloa crus-galli (ECHCG); experiment: B2 post-emergence herbicidal activity; conditions: Test B2b; post-emergence (sprayed after 8 days cultivation); rate 1000 g/ha; evaluated after 13 days; scale 5=total damage to plant, 0=no damage to plant
Experimental: as §2

[9] = system: Avena fatua (AVEFA); experiment: B2 post-emergence herbicidal activity; conditions: Test B2b; post-emergence (sprayed after 8 days cultivation); rate 1000 g/ha; evaluated after 13 days; scale 5=total damage to plant, 0=no damage to plant
Experimental: as §2

[10] = system: Alopecurus myosuroides (ALOMY); experiment: B2 post-emergence herbicidal activity; conditions: Test B2b; post-emergence (sprayed after 8 days cultivation); rate 1000 g/ha; evaluated after 13 days; scale 5=total damage to plant, 0=no damage to plant
Experimental: as §2

[11] = system: Setaria faberi (SETFA); experiment: B2 post-emergence herbicidal activity; conditions: Test B2b; post-emergence (sprayed after 8 days cultivation); rate 1000 g/ha; evaluated after 13 days; scale 5=total damage to plant, 0=no damage to plant
Experimental: as §2

[12] = system: Triticum aestivium (TRZAW); experiment: B2 post-emergence herbicidal activity; conditions: Test B2b; post-emergence (sprayed after 8 days cultivation); rate 1000 g/ha; evaluated after 13 days; scale 5=total damage to plant, 0=no damage to plant
Experimental: as §2

Nc1cnc(-c2cncc(F)c2)nc1C(F)(F)F [Compound D5, 2-(5-fluoro-3-pyridyl)-4-(trifluoromethyl)pyrimidin-5-amine]
Control after pre-emergence application, damage score: LOLPE [1]: 1 | Control after pre-emergence application, damage score: ECHCG [2]: 4 | Control after pre-emergence application, damage score: AVEFA [3]: 4 | Control after pre-emergence application, damage score: ALOMY [4]: 1 | Control after pre-emergence application, damage score: SETFA [5]: 5 | Control after pre-emergence application, damage score: TRAZW [6]: 0 | Control after post-emergence application, damage score: LOLPE [7]: 3 | Control after post-emergence application, damage score: ECHCG [8]: 4 | Control after post-emergence application, damage score: AVEFA [9]: 4 | Control after post-emergence application, damage score: ALOMY [10]: 1 | Control after post-emergence application, damage score: SETFA [11]: 5 | Control after post-emergence application, damage score: TRAZW [12]: 1

CNc1cnc(-c2cncc(F)c2)nc1C(F)(F)F [Compound D6]
Control after pre-emergence application, damage score: LOLPE [1]: 1 | Control after pre-emergence application, damage score: ECHCG [2]: 4 | Control after pre-emergence application, damage score: AVEFA [3]: 1 | Control after pre-emergence application, damage score: ALOMY [4]: 0 | Control after pre-emergence application, damage score: SETFA [5]: 4 | Control after pre-emergence application, damage score: TRAZW [6]: 0 | Control after post-emergence application, damage score: LOLPE [7]: 3 | Control after post-emergence application, damage score: ECHCG [8]: 5 | Control after post-emergence application, damage score: AVEFA [9]: 2 | Control after post-emergence application, damage score: ALOMY [10]: 0 | Control after post-emergence application, damage score: SETFA [11]: 5 | Control after post-emergence application, damage score: TRAZW [12]: 1

Nc1cnc(-c2cncnc2)nc1C(F)(F)F [Compound D9]
Control after pre-emergence application, damage score: LOLPE [1]: 1 | Control after pre-emergence application, damage score: ECHCG [2]: 3 | Control after pre-emergence application, damage score: AVEFA [3]: 2 | Control after pre-emergence application, damage score: ALOMY [4]: 0 | Control after pre-emergence application, damage score: SETFA [5]: 4 | Control after pre-emergence application, damage score: TRAZW [6]: 0 | Control after post-emergence application, damage score: LOLPE [7]: 2 | Control after post-emergence application, damage score: ECHCG [8]: 3 | Control after post-emergence application, damage score: AVEFA [9]: 3 | Control after post-emergence application, damage score: ALOMY [10]: 0 | Control after post-emergence application, damage score: SETFA [11]: 5 | Control after post-emergence application, damage score: TRAZW [12]: 0

CCNc1cnc(-c2cncc(N)c2)nc1C(F)(F)F [Compound D11]
Control after pre-emergence application, damage score: LOLPE [1]: 0 | Control after pre-emergence application, damage score: ECHCG [2]: 3 | Control after pre-emergence application, damage score: AVEFA [3]: 0 | Control after pre-emergence application, damage score: ALOMY [4]: 0 | Control after pre-emergence application, damage score: SETFA [5]: 5 | Control after pre-emergence application, damage score: TRAZW [6]: 0 | Control after post-emergence application, damage score: LOLPE [7]: 1 | Control after post-emergence application, damage score: ECHCG [8]: 5 | Control after post-emergence application, damage score: AVEFA [9]: 2 | Control after post-emergence application, damage score: ALOMY [10]: 1 | Control after post-emergence application, damage score: SETFA [11]: 5 | Control after post-emergence application, damage score: TRAZW [12]: 1

CCN(CC)c1cnc(-c2cncc(F)c2)nc1C(F)(F)F [Compound D12]
Control after pre-emergence application, damage score: LOLPE [1]: 0 | Control after pre-emergence application, damage score: ECHCG [2]: 1 | Control after pre-emergence application, damage score: AVEFA [3]: 0 | Control after pre-emergence application, damage score: ALOMY [4]: 0 | Control after pre-emergence application, damage score: SETFA [5]: 5 | Control after pre-emergence application, damage score: TRAZW [6]: 0 | Control after post-emergence application, damage score: LOLPE [7]: 2 | Control after post-emergence application, damage score: ECHCG [8]: 5 | Control after post-emergence application, damage score: AVEFA [9]: 3 | Control after post-emergence application, damage score: ALOMY [10]: 0 | Control after post-emergence application, damage score: SETFA [11]: 5 | Control after post-emergence application, damage score: TRAZW [12]: 1

N#Cc1cncc(-c2ncc(N)c(C(F)(F)F)n2)c1 [Compound D10, 5-[5-amino-4-(trifluoromethyl)pyrimidin-2-yl]pyridine-3-carbonitrile]
Control after pre-emergence application, damage score: LOLPE [1]: 0 | Control after pre-emergence application, damage score: ECHCG [2]: 0 | Control after pre-emergence application, damage score: AVEFA [3]: 0 | Control after pre-emergence application, damage score: ALOMY [4]: 0 | Control after pre-emergence application, damage score: SETFA [5]: 3 | Control after pre-emergence application, damage score: TRAZW [6]: 0 | Control after post-emergence application, damage score: LOLPE [7]: 1 | Control after post-emergence application, damage score: ECHCG [8]: 3 | Control after post-emergence application, damage score: AVEFA [9]: 1 | Control after post-emergence application, damage score: ALOMY [10]: 0 | Control after post-emergence application, damage score: SETFA [11]: 4 | Control after post-emergence application, damage score: TRAZW [12]: 1

Cc1nc(-c2cncnc2)ncc1N [Compound D3, 4-methyl-2-pyrimidin-5-yl-pyrimidin-5-amine]
Control after pre-emergence application, damage score: LOLPE [1]: 1 | Control after pre-emergence application, damage score: ECHCG [2]: 1 | Control after pre-emergence application, damage score: AVEFA [3]: 0 | Control after pre-emergence application, damage score: ALOMY [4]: 0 | Control after pre-emergence application, damage score: SETFA [5]: 2 | Control after pre-emergence application, damage score: TRAZW [6]: 0 | Control after post-emergence application, damage score: LOLPE [7]: 1 | Control after post-emergence application, damage score: ECHCG [8]: 2 | Control after post-emergence application, damage score: AVEFA [9]: 1 | Control after post-emergence application, damage score: ALOMY [10]: 1 | Control after post-emergence application, damage score: SETFA [11]: 3 | Control after post-emergence application, damage score: TRAZW [12]: 0

CNc1cnc(-c2cncnc2)nc1C [Compound D4]
Control after pre-emergence application, damage score: LOLPE [1]: 1 | Control after pre-emergence application, damage score: ECHCG [2]: 0 | Control after pre-emergence application, damage score: AVEFA [3]: 0 | Control after pre-emergence application, damage score: ALOMY [4]: 0 | Control after pre-emergence application, damage score: SETFA [5]: 2 | Control after pre-emergence application, damage score: TRAZW [6]: 0 | Control after post-emergence application, damage score: LOLPE [7]: 1 | Control after post-emergence application, damage score: ECHCG [8]: 1 | Control after post-emergence application, damage score: AVEFA [9]: 0 | Control after post-emergence application, damage score: ALOMY [10]: 1 | Control after post-emergence application, damage score: SETFA [11]: 1 | Control after post-emergence application, damage score: TRAZW [12]: 0

CCCNc1cnc(-c2cncc(F)c2)nc1C(F)(F)F [Compound D13, 2-(5-fluoro-3-pyridyl)-N-propyl-4-(trifluoromethyl)pyrimidin-5-amine]
Control after pre-emergence application, damage score: LOLPE [1]: 1 | Control after pre-emergence application, damage score: ECHCG [2]: 1 | Control after pre-emergence application, damage score: AVEFA [3]: 0 | Control after pre-emergence application, damage score: ALOMY [4]: 0 | Control after pre-emergence application, damage score: SETFA [5]: 2 | Control after pre-emergence application, damage score: TRAZW [6]: 1 | Control after post-emergence application, damage score: LOLPE [7]: 1 | Control after post-emergence application, damage score: ECHCG [8]: 4 | Control after post-emergence application, damage score: AVEFA [9]: 3 | Control after post-emergence application, damage score: ALOMY [10]: 0 | Control after post-emergence application, damage score: SETFA [11]: 4 | Control after post-emergence application, damage score: TRAZW [12]: 0

CN(C)c1cnc(-c2cncc(F)c2)nc1C(F)(F)F [Compound D8]
Control after pre-emergence application, damage score: LOLPE [1]: 1 | Control after pre-emergence application, damage score: ECHCG [2]: 2 | Control after pre-emergence application, damage score: AVEFA [3]: 1 | Control after pre-emergence application, damage score: ALOMY [4]: 0 | Control after pre-emergence application, damage score: SETFA [5]: 4 | Control after pre-emergence application, damage score: TRAZW [6]: 0 | Control after post-emergence application, damage score: LOLPE [7]: 0 | Control after post-emergence application, damage score: ECHCG [8]: 4 | Control after post-emergence application, damage score: AVEFA [9]: 1 | Control after post-emergence application, damage score: ALOMY [10]: 0 | Control after post-emergence application, damage score: SETFA [11]: 5 | Control after post-emergence application, damage score: TRAZW [12]: 0

Fc1cncc(-c2ncc(NCc3nccs3)c(C(F)(F)F)n2)c1 [Compound D15]
Control after pre-emergence application, damage score: LOLPE [1]: 0 | Control after pre-emergence application, damage score: ECHCG [2]: 4 | Control after pre-emergence application, damage score: AVEFA [3]: 1 | Control after pre-emergence application, damage score: ALOMY [4]: 0 | Control after pre-emergence application, damage score: SETFA [5]: 5 | Control after pre-emergence application, damage score: TRAZW [6]: 0 | Control after post-emergence application, damage score: LOLPE [7]: 2 | Control after post-emergence application, damage score: ECHCG [8]: 5 | Control after post-emergence application, damage score: ALOMY [10]: 1 | Control after post-emergence application, damage score: SETFA [11]: 5 | Control after post-emergence application, damage score: TRAZW [12]: 0

From US11672251B2, “Herbicidally active pyridyl-/pyrimidyl-pyrimidine derivatives” (Syngenta Participations AG, priority 2017, dated 2023)
